Measured values published in PubChem BioAssay AID2060883 (Molecular Pharmacology Branch, DTP, NCI, 2025).
pIC50: −log10 of the molar value.

Tested on: 843782-103-R-J1-PDC complex spheroid viability
Test: Anticancer human tumor 843782-103-R-J1-PDC patient-derived lung adenocarcinoma cell line growth inhibition [RAS]
Details: for pIC50: curve of first compound; for viability, T/C: stronger effect = lower value
Source text: RAS pathway inhibitors in Combinations in Complex Spheroids
A high-throughput screen of multi-cell type tumor spheroids was designed to identify active combinations of RAS pathway inhibitors and targeted small molecules. Complex spheroids include a stromal component modeled by human endothelial cells (HUVEC) and fibroblasts modeled by human mesenchymal stem cells (MSCs). The concentration ranges selected for each drug and investigational agent were based upon clinically achievable concentrations if the clinical Cmax of the agent was known.
Compounds. The drugs and investigational agents: abemaciclib (NSC768073), cobimetinib (NSC768068), divarasib (GDC6063, NSC841802), docetaxel (NSC628503), GDC-1971 (RLY-1971, NSC841576), gemcitabine (NSC613327), inavolisib (NSC800729), ipatasertib (NSC767898), KB-0742 (NSC834161), MRTX-1133 (NSC836407), osimertinib (NSC779217), RMC-4630 (NSC839698), RMC-6236 (NSC851965), RMC-6291 (NSC852671), Ro-3306 (NSC812927), sapanisertib (NSC764658), SN-38 (NSC673596), staurosporine (NSC755774), SY5609 (NSC837396), and tovorafenib (DAY101, NSC766906), were obtained from the National Cancer Institute (NCI) Developmental Therapeutics Program Chemical Repository. The FDA-approved anticancer drug set is available from the NCI Developmental Therapeutics Program. […] The stock solutions were prepared in dimethyl sulfoxide (DMSO, Sigma-Aldrich, St. Louis, MO, cat. D2650) at 800-fold the tested concentration and stored at -70 degrees C prior to their use. All drugs and investigational agents were tested over a range starting from a high concentration at or near the clinical Cmax and decreasing in half-log increments. If the clinical Cmax for an agent had not been determined, the highest concentration tested was 10 microM.
Cell Culture. All cells were maintained in an incubator at 37 degrees C and 5% CO2 with 95% humidity. The PDC lines were cultured according to standard operating procedures established by the NCI PDMR. All PDCs were thawed and cultured in Matrigel-coated flasks prepared with a working solution of 1X Ham's F-12 nutrient mix, without supplementation (Invitrogen, Waltham, MA, cat. 11765054), 100 U/mL penicillin-streptomycin (Invitrogen, cat. 15140122), and 2.5% Matrigel (Corning Inc., Corning, NY, cat. 354248) for the first three passages. The 362531-283-R-J2-PDC and 782815-120-R-J1-PDC lines were cultured in 6C/Colon 1B media, which includes advanced DMEM/F-12 (Thermo Fisher Scientific, cat. 12634028), 10 mM HEPES (Thermo Fisher Scientific, cat. 15630080), 1X GlutaMAX supplement (Thermo Fisher Scientific, cat. 35050061), 0.1 mg/mL primocin (InvivoGen, San Diego, CA, cat. ant-pm-2), 10% defined fetal bovine serum, heat inactivated (HyClone Laboratories Inc., Logan, UT, cat. SH30070.03HI), 50% L-WRN conditioned media (ATCC, cat. CRL-3276), 1.25 mM N-Acetyl-L-cysteine (Sigma-Aldrich, cat. A9165), 10 mM nicotinamide (Sigma-Aldrich, cat. N0636), 1X B-27 supplement (Thermo Fisher Scientific, cat. 17504044), 1X N-2 supplement (Thermo Fisher Scientific, cat. 17502048), 50 ng/mL human EGF (Thermo Fisher Scientific, cat. PHG0311), and 10 microM Y-27632 dihydrochloride (Tocris Bioscience, cat. 1254). The K12877-001-R-J1-PDC line was cultured in 6I media, which includes all 6C/Colon 1B media plus 10 ng/mL human FGF-10 (PeproTech, cat. 100-26), 1 ng/mL human FGF-2 (PeproTech, cat. 100-18B), 1 µM prostaglandin E2 (Tocris Bioscience, cat. 2296), […] hydrocortisone (Sigma-Aldrich, cat. H4001), and […] bovine insulin (Sigma-Aldrich, cat. I6634). The K86415-001-R-J1-PDC line was cultured in 6D media, which includes all 6C/Colon 1B media components minus the L-WRN conditioned media. The 485176-168-R4-J1-PDC was cultured in PANC media, which includes all 6C/Colon 1B media plus 100 ng/mL human FGF-10 (PeproTech, cat. 100-26), 500 nM SB-431542 (Selleckchem, cat. S1067), and 10 nM gastrin (Tocris Bioscience, cat. 3006). […]
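Further: viability read after seven days of compound exposure.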

With CC1(O)CCCC1n1c(=O)c(C(F)F)cc2cnc(NC3CCN(S(C)(=O)=O)CC3)nc21 (configuration not stated) + C#Cc1c(F)ccc2cc(O)cc(-c3ncc4c(N5CC6CCC(C5)N6)nc(OCC56CCCN5CC(F)C6)nc4c3F)c12 the pIC50 (second compound 0.0316 µM) was 6.63, the pIC50 (second compound 0.1 µM) was 6.46 and the pIC50 (second compound 0.316 µM) was 6.55. It also gave a pIC50 (second compound 1 µM) of 6.52, a pIC50 (second compound 3.16 µM) of 6.83 and a pIC50 (second compound 10 µM) greater than 7.50. It also gave a viability, T/C (second compound 0.0316 µM, first compound 0.0316 µM) of 98.9%, a viability, T/C (second compound 0.0316 µM, first compound 0.1 µM) of 93.4% and a viability, T/C (second compound 0.0316 µM, first compound 0.316 µM) of 34.7%. It also gave a viability, T/C (second compound 0.0316 µM, first compound 1 µM) of 41.8%, a viability, T/C (second compound 0.0316 µM, first compound 3.16 µM) of 23.2% and a viability, T/C (second compound 0.0316 µM, first compound 10 µM) of 3.99%. The viability, T/C (second compound 0.1 µM, first compound 0.0316 µM) was 102%, the viability, T/C (second compound 0.1 µM, first compound 0.1 µM) was 82.7% and the viability, T/C (second compound 0.1 µM, first compound 0.316 µM) was 37%. The viability, T/C (second compound 0.1 µM, first compound 1 µM) was 38.9%, the viability, T/C (second compound 0.1 µM, first compound 3.16 µM) was 23.6% and the viability, T/C (second compound 0.1 µM, first compound 10 µM) was 3.28%. For the same compound, the viability, T/C (second compound 0.316 µM, first compound 0.0316 µM) was 104%, the viability, T/C (second compound 0.316 µM, first compound 0.1 µM) was 77.5% and the viability, T/C (second compound 0.316 µM, first compound 0.316 µM) was 33.8%. It also gave a viability, T/C (second compound 0.316 µM, first compound 1 µM) of 37.3%, a viability, T/C (second compound 0.316 µM, first compound 3.16 µM) of 26.5% and a viability, T/C (second compound 0.316 µM, first compound 10 µM) of 3.67%. It also gave a viability, T/C (second compound 1 µM, first compound 0.0316 µM) of 97.9%, a viability, T/C (second compound 1 µM, first compound 0.1 µM) of 79.1% and a viability, T/C (second compound 1 µM, first compound 0.316 µM) of 39.2%. It also gave a viability, T/C (second compound 1 µM, first compound 1 µM) of 31.7%, a viability, T/C (second compound 1 µM, first compound 3.16 µM) of 26.2% and a viability, T/C (second compound 1 µM, first compound 10 µM) of 3.42%. The viability, T/C (second compound 3.16 µM, first compound 0.0316 µM) was 84.6%, the viability, T/C (second compound 3.16 µM, first compound 0.1 µM) was 56.5% and the viability, T/C (second compound 3.16 µM, first compound 0.316 µM) was 27.6%. The viability, T/C (second compound 3.16 µM, first compound 1 µM) was 33.9%, the viability, T/C (second compound 3.16 µM, first compound 3.16 µM) was 26% and the viability, T/C (second compound 3.16 µM, first compound 10 µM) was 2.68%. For the same compound, the viability, T/C (second compound 10 µM, first compound 0.0316 µM) was 52.9%, the viability, T/C (second compound 10 µM, first compound 0.1 µM) was 32.7% and the viability, T/C (second compound 10 µM, first compound 0.316 µM) was 30.9%. For the same compound, the viability, T/C (second compound 10 µM, first compound 1 µM) was 27.6%, the viability, T/C (second compound 10 µM, first compound 3.16 µM) was 29% and the viability, T/C (second compound 10 µM, first compound 10 µM) was 1.43%.
